Test results published in the supplement of paper PMC10307832.

Experiments:
Experiment in all cases: relative viability (nuclei count vs DMSO), 5 days (fraction); higher = more cells survive
Metformin + Phenformin = compound: CN(C)C(=N)NC(=N)N [Metformin] + N=C(N)NC(=N)NCCc1ccccc1 [Phenformin] (partner 250 µM)
Method in brief: (§1)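 The day after seeding in 1536-well plates, lung cancer cell lines were treated by pin tool with a single drug, or with a fixed anchor-drug dose together with five library-drug doses (not always all listed) in √10 steps. After 5 days, a combined fix-and-stain solution (final 0.05% Triton X-100, 1% formaldehyde, 1 ug/ml Hoechst) was added. Nuclei counted on 4× images gave relative viability as treated counts over vehicle counts, reported as the median of duplicate plates.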

Metformin + Trametinib = compound: CN(C)C(=N)NC(=N)N [Metformin] + CC(=O)Nc1cccc(-n2c(=O)n(C3CC3)c(=O)c3c(Nc4ccc(I)cc4F)n(C)c(=O)c(C)c32)c1 [Trametinib] (partner 0.02 µM)
Method in brief: as §1

Metformin + Decitabine = compound: CN(C)C(=N)NC(=N)N [Metformin] + Nc1ncn([C@H]2C[C@H](O)[C@@H](CO)O2)c(=O)n1 [Decitabine] (partner 2 µM)
Method in brief: as §1

Apatinib + Navitoclax = compound: N#CC1(c2ccc(NC(=O)c3cccnc3NCc3ccncc3)cc2)CCCC1 [Apatinib] + CC1(C)CCC(c2ccc(Cl)cc2)=C(CN2CCN(c3ccc(C(=O)NS(=O)(=O)c4ccc(N[C@H](CCN5CCOCC5)CSc5ccccc5)c(S(=O)(=O)C(F)(F)F)c4)cc3)CC2)C1 [Navitoclax] (partner 0.5 µM)
Method in brief: as §1

Cell Line | relative viability (Metformin + Phenformin; first compound 10 µM) | relative viability (Metformin + Phenformin; first compound 31.62 µM) | relative viability (Metformin + Phenformin; first compound 100 µM) | relative viability (Metformin + Phenformin; first compound 316.23 µM) | relative viability (Metformin + Phenformin; first compound 1000 µM) | relative viability (Metformin + Trametinib; first compound 10 µM) | relative viability (Metformin + Trametinib; first compound 31.62 µM) | relative viability (Metformin + Trametinib; first compound 100 µM) | relative viability (Metformin + Trametinib; first compound 316.23 µM) | relative viability (Metformin + Trametinib; first compound 1000 µM) | relative viability (Metformin + Decitabine; first compound 10 µM) | relative viability (Metformin + Decitabine; first compound 31.62 µM) | relative viability (Metformin + Decitabine; first compound 100 µM) | relative viability (Metformin + Decitabine; first compound 316.23 µM) | relative viability (Metformin + Decitabine; first compound 1000 µM) | relative viability (Apatinib + Navitoclax; first compound 0.08 µM) | relative viability (Apatinib + Navitoclax; first compound 0.253 µM) | relative viability (Apatinib + Navitoclax; first compound 0.8 µM) | relative viability (Apatinib + Navitoclax; first compound 2.53 µM) | relative viability (Apatinib + Navitoclax; first compound 8 µM)
NCI-H1437 | 0.296 | 0.363 | 0.338 | 0.343 | 0.299 | 0.638 | 0.703 | 0.631 | 0.701 | 0.627 | 0.641 | 0.595 | 0.59 | 0.593 | 0.577 | 1.12 | 1.14 | 0.939 | 0.928 | 0.776
NCI-H23 | 0.743 | 0.716 | 0.716 | 0.729 | 0.897 | 0.433 | 0.492 | 0.384 | 0.385 | 0.575 | 0.273 | 0.276 | 0.285 | 0.324 | 0.328 | 1.01 | 0.931 | 0.742 | 0.725 | 0.794
NCI-H647 | 0.614 | 0.58 | 0.62 | 0.521 | 0.653 | 0.479 | 0.598 | 0.498 | 0.482 | 0.556 | 0.316 | 0.366 | 0.381 |  | 0.434 | 1.3 | 1.29 | 1.04 | 0.975 | 0.779
NCI-H2009 | 0.504 | 0.499 | 0.565 | 0.412 | 0.425 | 0.366 | 0.362 | 0.387 | 0.36 | 0.384 | 0.367 | 0.366 | 0.351 | 0.401 | 0.424 | 1.22 | 1.23 | 1.12 | 0.913 | 0.826
HCC-78 | 0.685 | 0.716 | 0.627 | 0.651 | 0.782 |  | 1.3 | 1.15 | 1.1 | 0.541 |  | 0.605 | 0.768 | 0.779 | 0.658 | 0.884 | 0.631 | 0.821 | 0.58 | 0.648
LCLC-97TM1 | 0.478 | 0.43 | 0.332 | 0.398 | 0.477 |  | 0.207 | 0.247 | 0.174 | 0.229 |  | 0.203 | 0.202 | 0.21 | 0.29 | 0.485 | 0.401 | 0.369 | 0.397 | 0.18
HOP-62 | 0.486 | 0.577 | 0.527 | 0.478 | 0.593 | 0.409 | 0.497 | 0.427 | 0.364 | 0.485 | 0.193 | 0.144 | 0.18 | 0.208 | 0.186 | 1.04 | 1.01 | 1.01 | 0.859 | 0.878
LC-2-ad |  | 0.636 | 0.486 | 0.539 | 0.592 |  | 0.81 | 0.827 | 0.81 | 0.857 |  | 0.736 | 0.826 | 0.583 | 0.642 | 0.414 | 0.457 | 0.387 | 0.287 | 0.235
NCI-H2126 | 0.533 | 0.591 | 0.544 | 0.483 | 0.515 | 0.517 | 0.538 | 0.563 | 0.504 | 0.587 | 0.554 | 0.592 | 0.557 | 0.571 | 0.562 | 0.9 | 0.859 | 0.826 | 0.811 | 0.802
NCI-H1975 | 0.422 | 0.436 | 0.418 | 0.414 | 0.404 | 0.356 | 0.325 | 0.387 | 0.326 | 0.373 | 0.334 | 0.402 | 0.65 | 0.323 | 0.394 | 1.19 | 1.15 | 1.04 | 0.869 | 0.852
NCI-H1734 | 0.431 | 0.447 | 0.405 | 0.367 | 0.379 | 0.652 | 0.763 | 0.653 | 0.662 | 0.726 | 0.502 | 0.425 | 0.435 | 0.442 | 0.499 | 0.852 | 0.81 | 0.861 | 0.708 | 0.685
NCI-H727 | 0.321 | 0.707 | 0.585 |  | 0.573 | 0.404 | 0.369 | 0.41 |  | 0.349 | 0.789 | 0.897 | 0.89 |  | 1.1 | 0.465 | 0.552 | 0.384 | 0.425 | 0.531
LU99A | 0.937 | 0.816 | 0.761 | 0.775 | 0.919 | 0.524 | 0.482 | 0.544 | 0.433 | 0.448 | 0.798 | 0.765 | 0.723 | 0.735 | 0.849 | 0.876 | 0.851 | 0.745 | 0.721 | 0.732
LXF-289 | 0.48 | 0.525 | 0.537 | 0.509 | 0.51 | 0.645 | 0.658 | 0.641 | 0.602 | 0.602 | 0.312 | 0.367 | 0.345 | 0.312 | 0.378 | 0.948 | 0.925 | 0.95 | 0.82 | 0.882
UMC-11 | 0.322 | 0.317 | 0.321 | 0.312 | 0.351 | 0.552 | 0.687 | 0.727 | 0.77 | 0.572 | 0.573 | 0.743 | 0.741 | 0.49 | 0.437 | 0.343 | 0.335 | 0.319 | 0.247 | 0.266
NCI-H1650 | 0.7 | 0.548 | 0.593 | 0.458 | 0.476 | 0.597 | 0.602 | 0.718 | 0.474 | 0.458 | 0.326 | 0.343 | 0.317 | 0.402 | 0.389 | 1.39 | 1.41 | 1.18 | 1.1 | 1.06
NCI-H2405 | 0.379 | 0.362 | 0.362 | 0.393 | 0.326 |  | 0.744 | 0.635 | 0.688 | 0.555 |  | 0.783 | 0.756 | 0.677 | 0.64 | 1.03 | 1.07 | 1.01 | 0.832 | 0.803
